Experimental findings from BindingDB's records for patent US9624213 (Plexxikon, 2017) are described below.

Where only a bound is given, the exact number is not on record here.

In the assay the target is Serine/threonine-protein kinase B-raf [V600E] (Homo sapiens, UniProt P15056, V600E). Description: Biochemical activity. On the procedure: Assays for biochemical and cell based activity are known in the art, for example, as described in PCT publication WO 2007/002433, the disclosure of which is hereby incorporated by reference as it relates to such assays. For example, the biochemical activity IC50 values are determined with respect to inhibition of B-Raf V600E kinase activity or p-Erk kinase activity, where inhibition of phosphorylation of a peptide substrate is measured as a function of compound concentration. Compounds to be tested are diluted in dimethyl sulfoxide to a concentration of 0.1 mM. These are serially diluted 15 uL into 30 uL of dimethyl sulfoxide seven times in 96 well plates for a total of 8 dilution points, and for each dilution point 1 uL is added to a well of an assay plate. Plates are prepared such that each well in a 384 well plate contains 1 uL of compound in 10 uL volume with 0.1 ng Raf enzyme (i.e. any of B-Raf, c-Raf-1 or B-Raf V600E, Upstate Biotechnology or prepared by methods known to one of skill in the art), 50 mM HEPES, pH 7.0, 50 mM NaCl, 2 mM MgCl2, 1 mM MnCl2, 0.01% Tween-20, 1 mM DTT, and 100 nM biotin-MEK1 as substrate. The reaction is started with addition of 10 uL of 200 uM ATP (i.e. final 100 uM ATP). After incubation of the kinase reaction for 45 minutes at room temperature, 5 uL/well of Stop Solution is added (25 mM Hepes pH 7.5, 100 mM EDTA, 0.01% BSA with donor beads (Streptavidin coated beads, Perkin Elmer), acceptor beads (Protein A coated, Perkin Elmer), and anti phosphor MEK1/2 antibody (CellSignal), each at final concentration 10 ug/mL).

As usually defined, the IC50 is the concentration at which inhibition is half-maximal.

Sequence of Serine/threonine-protein kinase B-raf [V600E] (P15056 2-766 V600E limits assumed): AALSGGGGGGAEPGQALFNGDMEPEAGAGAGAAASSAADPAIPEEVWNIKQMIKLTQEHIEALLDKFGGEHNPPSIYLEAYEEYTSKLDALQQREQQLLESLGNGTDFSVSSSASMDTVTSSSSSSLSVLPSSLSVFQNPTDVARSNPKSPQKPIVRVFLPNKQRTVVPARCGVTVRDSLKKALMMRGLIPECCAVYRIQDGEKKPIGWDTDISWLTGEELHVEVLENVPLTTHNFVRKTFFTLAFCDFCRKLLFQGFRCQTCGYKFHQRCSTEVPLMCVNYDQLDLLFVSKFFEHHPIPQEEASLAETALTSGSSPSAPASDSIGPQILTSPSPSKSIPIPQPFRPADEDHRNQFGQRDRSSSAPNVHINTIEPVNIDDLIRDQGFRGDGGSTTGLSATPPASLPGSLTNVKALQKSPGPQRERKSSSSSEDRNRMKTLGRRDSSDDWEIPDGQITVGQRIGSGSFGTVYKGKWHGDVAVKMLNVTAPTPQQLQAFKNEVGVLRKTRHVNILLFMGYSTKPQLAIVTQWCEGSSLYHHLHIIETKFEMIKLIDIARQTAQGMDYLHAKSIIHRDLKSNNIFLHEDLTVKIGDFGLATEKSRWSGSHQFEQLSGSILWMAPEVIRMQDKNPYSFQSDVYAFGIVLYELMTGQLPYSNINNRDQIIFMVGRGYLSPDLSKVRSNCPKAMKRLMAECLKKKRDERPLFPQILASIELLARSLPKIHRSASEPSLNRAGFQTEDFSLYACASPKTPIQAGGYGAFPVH

For the compound `CCN(C)S(=O)(=O)Nc1cccc(C(=O)c2c[nH]c3ncc(-c4ccc(Cl)cc4)cc23)c1F`, the IC50 is less than 100 nM.
Next, `CN(C)c1ncc(-c2cnc3[nH]cc(C(=O)c4c(F)ccc(NS(=O)(=O)N5CCCC5)c4F)c3c2)cn1`: less than 100 nM.
For `CCN(C)S(=O)(=O)Nc1cccc(C(=O)c2c[nH]c3ncc(-c4cccnc4)cc23)c1F` the value was less than 100 nM.
Next, `CN(C)c1ccc(-c2cnc3[nH]cc(C(=O)c4cccc(NS(=O)(=O)N(C)C)c4F)c3c2)cn1`: less than 100 nM; `CN(C)S(=O)(=O)Nc1cccc(C(=O)c2c[nH]c3ncc(-c4ccc(F)cc4)cc23)c1F`: less than 100 nM; `CCN(C)S(=O)(=O)Nc1cccc(C(=O)c2c[nH]c3ncc(-c4ccc(C#N)cc4)cc23)c1F`: less than 100 nM.
`CN(C)S(=O)(=O)Nc1cccc(C(=O)c2c[nH]c3ncc(-c4ccc(C#N)cc4)cc23)c1F` yielded an IC50 of less than 100 nM.
Next, `O=C(c1c(F)ccc(NS(=O)(=O)N2CCCC2)c1F)c1c[nH]c2ncc(I)cc12`: less than 100 nM; `CCN(C)S(=O)(=O)Nc1cccc(C(=O)c2c[nH]c3ncc(C#N)cc23)c1F` [US9624213, Compound P-0039]: less than 100 nM.
For `COc1ncc(-c2cnc3[nH]cc(C(=O)c4cccc(NS(=O)(=O)N(C)C5CC5)c4F)c3c2)cn1` the value was less than 100 nM.
For `COc1ncc(-c2cnc3[nH]cc(C(=O)c4cccc(NS(=O)(=O)N5CCCC5)c4F)c3c2)c(OC)n1` [US9624213, Compound P-0044] the value was less than 100 nM; for `CC(C)CN(C)S(=O)(=O)Nc1cccc(C(=O)c2c[nH]c3ncc(I)cc23)c1F` [US9624213, Compound P-0070], more than 100 nM.
`CCN(C)S(=O)(=O)Nc1cccc(C(=O)c2c[nH]c3ncc(-c4ccc(C)nc4)cc23)c1F`: the half-maximal inhibitory concentration (IC50) is less than 100 nM.
`CNS(=O)(=O)Nc1cccc(C(=O)c2c[nH]c3ncc(-c4cnc(OC)nc4)cc23)c1F` returned an IC50 of more than 100 nM.
`CCC(C)S(=O)(=O)Nc1cccc(C(=O)c2c[nH]c3ncc(-c4cnc(C5CC5)nc4)cc23)c1F` (centres undefined) [US9624213, Compound P-0228] returned an IC50 of less than 100 nM.
`CCN(C)S(=O)(=O)Nc1ccc(F)c(C(=O)c2c[nH]c3ncc(-c4cnc(OC)nc4)cc23)c1F` yielded an IC50 of less than 100 nM.
For the compound `CCN(C)S(=O)(=O)Nc1cccc(C(=O)c2c[nH]c3ncc(-c4cnc(OC)nc4)cc23)c1F`, the IC50 is less than 100 nM.
`Cc1ccc(-c2cnc3[nH]cc(C(=O)c4cccc(NS(=O)(=O)N(C)C)c4F)c3c2)cn1` [US9624213, Compound P-0029] displayed an IC50 of less than 100 nM.
Next, `CCN(C)S(=O)(=O)Nc1cccc(C(=O)c2c[nH]c3ncc(-c4ccc(F)cc4)cc23)c1F`: less than 100 nM.
